Source: the NIST ThermoML archive (doi:10.1016/j.jct.2005.08.015)

Test: of the first substance listed, at infinite dilution; xn = mol fraction of the nth substance listed
Details: Liquid, vibrating tube densimetry, x1 = 0

OCCCO [propan-1,3-diol] + O
Details	partial molar volume [m3/mol]
298.22 K, 640 kPa	7.193e-05
298.22 K, 29780 kPa	7.167e-05
298.23 K, 15160 kPa	7.183e-05
318.17 K, 480 kPa	7.262e-05
318.17 K, 14770 kPa	7.234e-05
318.17 K, 30240 kPa	7.212e-05
338.16 K, 440 kPa	7.345e-05
338.16 K, 15130 kPa	7.315e-05
338.16 K, 30290 kPa	7.289e-05
373.13 K, 30110 kPa	7.451e-05
373.14 K, 15170 kPa	7.496e-05
373.16 K, 1960 kPa	7.536e-05
408.15 K, 14940 kPa	7.727e-05
408.15 K, 30010 kPa	7.668e-05
408.16 K, 1870 kPa	7.783e-05
442.02 K, 1820 kPa	8.074e-05
442.03 K, 15700 kPa	7.994e-05
442.08 K, 29800 kPa	7.924e-05
473.15 K, 1940 kPa	8.402e-05
473.16 K, 15710 kPa	8.291e-05
473.16 K, 30280 kPa	8.188e-05
498.15 K, 15940 kPa	8.561e-05
498.16 K, 2960 kPa	8.701e-05
498.16 K, 30110 kPa	8.438e-05
523.16 K, 5030 kPa	9.047e-05
523.16 K, 16160 kPa	8.885e-05
523.16 K, 30260 kPa	8.723e-05
548.18 K, 7070 kPa	9.443e-05
548.18 K, 18040 kPa	9.233e-05
548.18 K, 30580 kPa	9.05e-05
573.17 K, 30240 kPa	9.414e-05
573.18 K, 10100 kPa	9.925e-05
573.19 K, 19920 kPa	9.645e-05

CC(O)CO (stereo unspecified) [1,2-propanediol] + O
Details	partial molar volume [m3/mol]
298.21 K, 640 kPa	7.123e-05
298.22 K, 15160 kPa	7.119e-05
298.22 K, 29790 kPa	7.112e-05
318.17 K, 500 kPa	7.214e-05
318.17 K, 14770 kPa	7.192e-05
318.17 K, 30140 kPa	7.175e-05
338.16 K, 440 kPa	7.321e-05
338.16 K, 15160 kPa	7.291e-05
338.16 K, 30320 kPa	7.263e-05
373.13 K, 15150 kPa	7.509e-05
373.13 K, 29980 kPa	7.46e-05
373.14 K, 2010 kPa	7.548e-05
408.15 K, 29980 kPa	7.718e-05
408.16 K, 1760 kPa	7.843e-05
408.16 K, 15000 kPa	7.781e-05
441.99 K, 1840 kPa	8.185e-05
442.03 K, 15650 kPa	8.093e-05
442.03 K, 29800 kPa	8.01e-05
473.15 K, 1890 kPa	8.576e-05
473.15 K, 15760 kPa	8.445e-05
473.16 K, 30230 kPa	8.325e-05
498.15 K, 2930 kPa	8.947e-05
498.15 K, 15970 kPa	8.777e-05
498.15 K, 30110 kPa	8.627e-05
523.16 K, 4980 kPa	9.38e-05
523.16 K, 16130 kPa	9.172e-05
523.16 K, 30320 kPa	8.966e-05
548.17 K, 7020 kPa	9.914e-05
548.18 K, 18020 kPa	9.621e-05
548.18 K, 30440 kPa	9.367e-05
573.14 K, 30360 kPa	9.86e-05
573.18 K, 10120 kPa	0.000106
573.19 K, 19990 kPa	0.0001018

OCC(O)CO [glycerol] + O
Details	partial molar volume [m3/mol]
298.21 K, 640 kPa	7.093e-05
298.21 K, 29800 kPa	7.103e-05
298.22 K, 15170 kPa	7.097e-05
318.17 K, 470 kPa	7.205e-05
318.17 K, 14770 kPa	7.195e-05
318.17 K, 30260 kPa	7.194e-05
338.16 K, 440 kPa	7.304e-05
338.16 K, 15150 kPa	7.288e-05
338.16 K, 30360 kPa	7.277e-05
373.13 K, 15180 kPa	7.444e-05
373.13 K, 30110 kPa	7.428e-05
373.14 K, 1980 kPa	7.463e-05
408.15 K, 30120 kPa	7.586e-05
408.16 K, 1830 kPa	7.644e-05
408.16 K, 14970 kPa	7.616e-05
441.99 K, 1850 kPa	7.825e-05
442.03 K, 15670 kPa	7.795e-05
442.13 K, 29820 kPa	7.764e-05
473.15 K, 1960 kPa	8e-05
473.15 K, 15740 kPa	7.962e-05
473.16 K, 30290 kPa	7.92e-05
498.15 K, 3000 kPa	8.129e-05
498.15 K, 30210 kPa	8.047e-05
498.16 K, 15930 kPa	8.087e-05
523.15 K, 16150 kPa	8.212e-05
523.16 K, 5030 kPa	8.238e-05
523.16 K, 30280 kPa	8.184e-05
548.17 K, 7070 kPa	8.292e-05
548.18 K, 18040 kPa	8.309e-05
548.18 K, 30570 kPa	8.347e-05
573.14 K, 30040 kPa	8.344e-05
573.18 K, 10150 kPa	8.171e-05
573.19 K, 15080 kPa	8.249e-05
573.19 K, 19940 kPa	8.3e-05
573.25 K, 24690 kPa	8.32e-05

OCCO [1,2-ethanediol] + O
Details	partial molar volume [m3/mol]
298.21 K, 640 kPa	5.462e-05
298.21 K, 29790 kPa	5.452e-05
298.23 K, 15130 kPa	5.457e-05
318.17 K, 470 kPa	5.548e-05
318.17 K, 14770 kPa	5.53e-05
318.17 K, 30150 kPa	5.516e-05
338.16 K, 440 kPa	5.63e-05
338.16 K, 15150 kPa	5.604e-05
338.16 K, 30360 kPa	5.584e-05
373.12 K, 30010 kPa	5.724e-05
373.14 K, 15170 kPa	5.754e-05
373.15 K, 1960 kPa	5.78e-05
408.15 K, 30070 kPa	5.89e-05
408.16 K, 1760 kPa	5.969e-05
408.16 K, 15000 kPa	5.932e-05
441.98 K, 1950 kPa	6.178e-05
442.03 K, 15670 kPa	6.123e-05
442.04 K, 29810 kPa	6.072e-05
473.15 K, 1900 kPa	6.408e-05
473.15 K, 30250 kPa	6.266e-05
473.16 K, 15750 kPa	6.337e-05
498.15 K, 15970 kPa	6.53e-05
498.15 K, 30110 kPa	6.448e-05
498.16 K, 2930 kPa	6.621e-05
523.16 K, 5030 kPa	6.856e-05
523.16 K, 16160 kPa	6.754e-05
523.16 K, 30260 kPa	6.653e-05
548.17 K, 7030 kPa	7.13e-05
548.18 K, 18020 kPa	6.994e-05
548.18 K, 30300 kPa	6.88e-05
573.14 K, 30090 kPa	7.119e-05
573.18 K, 10040 kPa	7.399e-05
573.19 K, 15080 kPa	7.318e-05
573.19 K, 19910 kPa	7.25e-05
573.23 K, 24730 kPa	7.182e-05
